Source: paper PMC12557367, ““Precision on Two Wheels”–Structural Refinement of ^64Cu- and ^68Ga-Labeled Bicyclic Peptides Targeting Nectin‑4 for Improved Tumor Imaging: From Preclinical Development to First-in-Human Application” (Journal of Medicinal Chemistry, 2025)
Numbered stars: 1 amine (or outer) side, 2 acyl side, 3 side chain; on linkers, the order of the positions; unused ones are H or OH. Bridge positions count the residues as written; N and C are the ends. Square brackets hold non-standard residues; d marks the D form. Peptide text beside a SMILES is read from it. * marks the point of attachment. TATA = O=C(CC[*:1])N1CN(C(=O)CC[*:2])CN(C(=O)CC[*:3])C1; X1 = O=C(O)CN1CCN(CC(=O)O)CCN([C@H](CCC(=O)*)C(=O)O)CC1; 1Nal = N[C@@H](Cc1cccc2ccccc12)C(=O)O; 2Nal = N[C@@H](Cc1ccc2ccccc2c1)C(=O)O; Hyp = O=C(O)[C@@H]1C[C@@H](O)CN1; hArg = N=C(N)NCCCC[C@H](N)C(=O)O; SeMet = C[Se]CC[C@H](N)C(=O)O; hSer = N[C@@H](CCO)C(=O)O

Assays:
[1] = n-Octanol/PBS distribution coefficient (logD 7.4); format: physicochemical
Procedure: The determination of logD 7.4 was performed in triplicate. A sample of the ^64Cu/^68Ga-labeled compound containing ≈1 MBq in a volume of 1 μL was added to a 1.5 mL Eppendorf tube containing 400 μL of PBS (pH 7.4) and 400 μL of n-Octanol (the phases were presaturated with each other). The tube was vortexed vigorously for 1 min and then centrifuged at 16,100g for 4 min to separate the phases. For sampling from the aqueous phase, the pipette tip was discharged while passing through the octanol layer. Then, the sample was taken within the aqueous phase. Any residual liquid was carefully removed by moving the tip along the inner wall of an Eppendorf tube. The radioactivity in a defined volume of each layer was measured (ISOMED 2100). The distribution coefficient was expressed as the logarithm of the ratio of counts per minute (cpm) measured in the n-Octanol phase to the cpm measured in the PBS phase.

[2] = molecular target: human serum albumin (HSA) (Homo sapiens, UniProt P02768); format: in vitro ADME
Sequence of human serum albumin (HSA) (P02768 25-609): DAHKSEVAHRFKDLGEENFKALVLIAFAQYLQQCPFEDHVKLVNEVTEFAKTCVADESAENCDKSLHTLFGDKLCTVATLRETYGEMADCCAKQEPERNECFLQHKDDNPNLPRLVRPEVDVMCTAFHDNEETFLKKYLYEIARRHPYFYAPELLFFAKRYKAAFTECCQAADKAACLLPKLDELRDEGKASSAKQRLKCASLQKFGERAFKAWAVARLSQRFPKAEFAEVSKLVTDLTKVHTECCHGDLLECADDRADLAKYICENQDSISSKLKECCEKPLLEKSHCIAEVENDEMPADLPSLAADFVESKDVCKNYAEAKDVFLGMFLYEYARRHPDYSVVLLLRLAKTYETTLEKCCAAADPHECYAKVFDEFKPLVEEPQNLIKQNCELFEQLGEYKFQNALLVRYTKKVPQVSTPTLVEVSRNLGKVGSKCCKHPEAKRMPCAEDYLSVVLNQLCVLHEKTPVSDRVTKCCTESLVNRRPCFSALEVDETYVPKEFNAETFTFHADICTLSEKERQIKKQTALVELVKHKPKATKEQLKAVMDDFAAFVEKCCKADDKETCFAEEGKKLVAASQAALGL
From the text: page 20: S20 Figure S11: Assessment of plasma protein and HSA binding for [64Cu]Cu-1e and [64Cu]Cu-4 by ultrafiltration […] PBS), and undiluted human plasma. B) Plot of “percentage of retained activity in filter” = f([HSA]) for [64Cu]Cu-4 with nonlinear regression according to the Morrison equation ( total […] labeling). For details on the experimental method and regression analysis see ref. 1. PBS HSA Plasma 0% 20% 40% 60% 80% 47 64 50 percentage of retained activity in filter 102 103 104 105 106 107 0 20 40 60 80 100 [HSA] (nM) percentage of retained activity in filter […] A B (1 picture or pasted object on this page, not shown here)

[3] = tested on: HT-1376-derived tumor xenograft model; assay: Small animal PET/CT imaging; parameters: species or system mice; details: mouse, in vivo
Summary of the method: (§1)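 NMRI nude mice bore subcutaneous HT-1376 xenografts (5 × 10^6 cells in 50% Matrigel), imaged at ~200 mm^3 tumour volume. Radioligand (molar activity 25 MBq/nmol; ~9 MBq, ≈0.46 nmol) injected i.v. via tail vein, with 75 nmol blocking substance co-injected for blocking; dynamic 2 h PET from injection plus CT for attenuation correction.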

[4] = Chromatographic hydrophobicity index at immobilized artificial membrane (CHI IAM7.4) by HPLC; format: physicochemical; details: nonlabeled peptide, pH 7.4
Procedure: Consequently, the CHI IAM7.4 values indicate that unfavorable pharmacokinetic behavior due to nonspecific binding is not to be expected.
All commercial reagents and solvents were used without further purification, unless otherwise specified. […] The purity of compound 5, which bears selenomethionine, was lower due to the lability to oxidation (as discussed above). The HPLC-based determination of chromatographic hydrophobicity indices at an immobilized artificial membrane was performed as previously described according to the method developed by Valko et al.

[5] = molecular target: T1, recombinant human nectin-4 (Homo sapiens, UniProt Q96NY8); assay: FA-based competitive binding assay with probe 1a; details: for Hill coefficient n: competitive binding curve, variable slope
T1 construct: close to the value determined for the complete extracellular domain of nectin-4 (0.94 nM); purchased R&D Systems 2659-N4
T1 sequence (Q96NY8 32-349 limits assumed): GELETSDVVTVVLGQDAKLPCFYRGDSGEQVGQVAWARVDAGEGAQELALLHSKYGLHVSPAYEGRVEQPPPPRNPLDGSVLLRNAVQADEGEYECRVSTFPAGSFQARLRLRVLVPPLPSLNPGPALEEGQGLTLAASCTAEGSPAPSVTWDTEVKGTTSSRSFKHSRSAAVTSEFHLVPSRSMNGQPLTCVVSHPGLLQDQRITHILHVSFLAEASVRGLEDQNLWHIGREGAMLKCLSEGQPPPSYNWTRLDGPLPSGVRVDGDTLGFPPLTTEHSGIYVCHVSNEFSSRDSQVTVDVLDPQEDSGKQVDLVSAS

[6] = molecular target: T2, immobilized human nectin-4 (Homo sapiens, UniProt Q96NY8); assay: SPR analysis of binding kinetics; details: ±SEM; for kon: HBS-P+ pH 7.4, 25 °C, read-out: k on (SPR, *10^6 M^–1 s^–1); for koff: pH 7.4, HBS-P+ pH 7.4, 25 °C, read-out: k off (SPR, *10^–3 s^–1)
T2 construct: close to the value determined for the complete extracellular domain of nectin-4 (0.94 nM); purchased R&D Systems 2659-N4
T2 sequence (Q96NY8 32-349 limits assumed): T1 sequence (Q96NY8 32-349 limits assumed)
Procedure: For this purpose, recombinant human nectin-4 was covalently immobilized on a CM5 sensor chip by EDC/NHS coupling. For analyses, the buffer composition (HBS-P+, pH 7.4) was similar to that of the FA assay; however, DMSO was completely omitted (1% DMSO for the FA assay).
The SPR analyses were carried out on a Biacore T200 (GE Healthcare, Chicago, IL, USA) at 25 °C using CM5 sensor chips (Cytiva) and HBS-P+ as running buffer (Cytiva) at a flow of 30 μL/min unless otherwise specified and a data collection rate of 10 Hz. All flow cells (FC) were normalized, and functionalization was performed using an amine coupling Kit (Cytiva). […] Binding analyses were performed by a single-cycle kinetic on both FC. Two start-up cycles were performed at the beginning of each experimental set, comprising the injection of bicyclic peptide (50 nM) and analysis on both FC, followed by regeneration. Binding analysis for the bicyclic peptides was performed by consecutive injection of five increasing concentrations (120 s contact time for each concentration), followed by 600 s dissociation time and analysis on both FC. The regeneration was performed by sequential injection of 10 mM NaOAc (pH 5.5) for 60 s, washing the needle using HBS-P+, injection of 10 mM NaOAc (pH 5.5) for 60 s, 600 s waiting, four injections of HBS-P+ (60 s), and a final 600 s waiting for stabilization. Blank runs using only buffer (HBS-P+) instead of the sample were carried out to obtain double-referenced chromatograms. Binding analyses were performed unless otherwise stated in a concentration range between 0.16–100 nM and 1.6–1000 nM (5-fold dilution series) and analyzed in triplicate. The data were analyzed using the Biacore Evaluation software 3.2.1. […] Data were fitted to a 1:1 binding model.

[7] = Oxidation stability in H2O2 (radio-HPLC)
Procedure: To avoid a too rapid degradation of radiolabeled peptides, a low H2O2 concentration of 0.0012% was chosen. […] In this context, there are three further thioether functionalities in each peptide due to the cyclization of the Cys residues with TATA. In Figure , the curves for the time-dependent degradation of the intact radioligands are depicted, from which the respective half-lives were calculated.
The stability toward oxidizing conditions was assessed with H2O2. For this purpose, the radioligands (2 nmol, 48 μL of labeling mixture) were treated with H2O2 (2 μL of 0.03%, final concentration of 0.0012%) at ambient temperature. At distinct time points (3, 5, and 7 h), an aliquot of 2 μL was withdrawn and diluted with 48 μL of a mixture named “Supersol,” which consists of 20% ethanol, 0.5% Triton X-100, 5 mM EDTA, 0.5 mM o-phenanthroline, and 0.1% saponin. […] The resulting solutions were analyzed by radio-HPLC (same system as that used for analyzing the ^64Cu-labelings).

[8] = Small animal PET/CT imaging; parameters: species or system mice; details: mouse, in vivo, TAC for heart, two-phase decay
Summary of the method: as §1

HT-1376 cells = assay: Saturation binding assay on intact cells; format: cell-based, human; details: ^64Cu-labeled ligand, intact HT-1376 cells, 60 min, PBS wash; apparent; ±SD
Procedure: For the saturation binding assay, total and nonspecific binding were determined as described above using 10 different radioligand concentrations ([…]) prepared by serial 1:1 dilution. Plots of “total binding” = f(radioligand) were analyzed by nonlinear regressions using the model of “one site-total, accounting for ligand depletion” as implemented in GraphPad Prism, and Plots of “nonspecific binding” = f(radioligand) were analyzed by linear regressions.

CHI IAM7.4 [4] | Hill coefficient n [5] | kon [6] | koff [6] | Compound | binding to HSA or other plasma proteins [2] | time of highest tumor uptake [3] | also measured
– | – | – | – | COCC[C@@H]1NC(=O)[C@@H]2CSCCC(=O)N3CN(CN(C3)C(=O)CCSC[C@H](NC(=O)CC[C@H](C(=O)O)N3CCN(CC(=O)O)CCN(CC(=O)O)CC3)C(=O)N3CCC[C@H]3C(=O)N[C@@H](Cc3cccc4ccccc34)C(=O)N[C@H](CC(=O)O)C(=O)N2)C(=O)CCSC[C@@H](C(N)=O)NC(=O)[C@H](Cc2c[nH]c3ccccc23)NC(=O)[C@@H]2C[C@@H](O)CN2C(=O)[C@@H]2CCCN2C(=O)[C@H]([C@@H](C)O)NC(=O)[C@H](CO)NC(=O)[C@H](Cc2c[nH]c3ccccc23)NC(=O)[C@H](CC(=O)O)NC(=O)[C@H](CCCCNC(=N)N)NC1=O [[^64Cu]Cu-4] [metal not drawn] (X1-CP[1Nal][dD]C[hSer](Me)[hArg]DWSTP[Hyp]WC-NH2; linker 1-5-15 via TATA) | negligible binding capability | 12.5 min | logD 7.4 ([1]; pH 7.4): −2.76; body retention at 2 h p.i. [3]: 40–42%
19.9 | 2.05 | 1.11e+06 M⁻¹ s⁻¹ | 0.00278 s⁻¹ | CSCC[C@@H]1NC(=O)[C@@H]2CSCCC(=O)N3CN(CN(C3)C(=O)CCSC[C@H](NC(=O)CC[C@H](C(=O)O)N3CCN(CC(=O)O)CCN(CC(=O)O)CC3)C(=O)N3CCC[C@H]3C(=O)N[C@@H](Cc3cccc4ccccc34)C(=O)N[C@H](CC(=O)O)C(=O)N2)C(=O)CCSC[C@@H](C(N)=O)NC(=O)[C@H](Cc2c[nH]c3ccccc23)NC(=O)[C@@H]2C[C@@H](O)CN2C(=O)[C@@H]2CCCN2C(=O)[C@H]([C@@H](C)O)NC(=O)[C@H](CO)NC(=O)[C@H](Cc2c[nH]c3ccccc23)NC(=O)[C@H](CC(=O)O)NC(=O)[C@H](CCCNC(=N)N)NC1=O [compound 10] (X1-CP[1Nal][dD]CMRDWSTP[Hyp]WC-NH2; linker 1-5-15 via TATA) | – | – | –
– | – | – | – | COCC[C@@H]1NC(=O)[C@@H]2CSCCC(=O)N3CN(CN(C3)C(=O)CCSC[C@H](NC(=O)CC[C@H](C(=O)O)N3CCN(CC(=O)O)CCN(CC(=O)O)CC3)C(=O)N3CCC[C@H]3C(=O)N[C@@H](Cc3cccc4ccccc34)C(=O)N[C@H](CC(=O)O)C(=O)N2)C(=O)CCSC[C@@H](C(N)=O)NC(=O)[C@H](Cc2c[nH]c3ccccc23)NC(=O)[C@@H]2C[C@@H](O)CN2C(=O)[C@@H]2CCCN2C(=O)[C@H]([C@@H](C)O)NC(=O)[C@H](CO)NC(=O)[C@H](Cc2c[nH]c3ccccc23)NC(=O)[C@H](CC(=O)O)NC(=O)[C@H](CCCCNC(=N)N)NC1=O [[^64Cu]Cu-4, metal not drawn] (X1-CP[1Nal][dD]C[hSer](Me)[hArg]DWSTP[Hyp]WC-NH2; linker 1-5-15 via TATA) | – | – | half-life [7]: 412 min; Kd ([2]; human): > 600 µM; half-life ([8]; distribution phase, read-out: Blood half life fast): 1.3 ± 0.17 min; half-life ([8]; elimination phase, read-out: Blood half life slow): 32 ± 2.09 min
– | – | – | – | CSCC[C@@H]1NC(=O)[C@@H]2CSCCC(=O)N3CN(CN(C3)C(=O)CCSC[C@H](NC(=O)CC[C@H](C(=O)O)N3CCN(CC(=O)O)CCN(CC(=O)O)CC3)C(=O)N3CCC[C@H]3C(=O)N[C@@H](Cc3cccc4ccccc34)C(=O)N[C@H](CC(=O)O)C(=O)N2)C(=O)CCSC[C@@H](C(N)=O)NC(=O)[C@H](Cc2c[nH]c3ccccc23)NC(=O)[C@@H]2C[C@@H](O)CN2C(=O)[C@@H]2CCCN2C(=O)[C@H]([C@@H](C)O)NC(=O)[C@H](CO)NC(=O)[C@H](Cc2c[nH]c3ccccc23)NC(=O)[C@H](CC(=O)O)NC(=O)[C@H](CCCCNC(=N)N)NC1=O [[^64Cu]Cu-1e] [metal not drawn] | negligible binding capability | ≈ 6 min | Percent fast [%] [3]: 86.95 ±2.10%
20.3 | 0.99 | 680000 M⁻¹ s⁻¹ | 0.0433 s⁻¹ | CSCC[C@@H]1NC(=O)[C@@H]2CSCCC(=O)N3CN(CN(C3)C(=O)CCSC[C@H](NC(=O)CC[C@H](C(=O)O)N3CCN(CC(=O)O)CCN(CC(=O)O)CC3)C(=O)N3CCC[C@H]3C(=O)N[C@@H](Cc3ccc4ccccc4c3)C(=O)N[C@H](CC(=O)O)C(=O)N2)C(=O)CCSC[C@@H](C(N)=O)NC(=O)[C@H](Cc2c[nH]c3ccccc23)NC(=O)[C@@H]2C[C@@H](O)CN2C(=O)[C@@H]2CCCN2C(=O)[C@H]([C@@H](C)O)NC(=O)[C@H](CO)NC(=O)[C@H](Cc2c[nH]c3ccccc23)NC(=O)[C@H](CC(=O)O)NC(=O)[C@H](CCCNC(=N)N)NC1=O [8a] (X1-CP[2Nal][dD]CMRDWSTP[Hyp]WC-NH2; linker 1-5-15 via TATA) | – | – | logD ([1]; pH 7.4, logD 7.4): -2.48; Kd (HT-1376 cells): 0.0517 µM; fold lower binding affinity compared to 1e ([5]; FA K d ratio): 30 fold

Compound | CHI IAM7.4 [4] | Hill coefficient n [5] | kon [6] | koff [6] | binding to HSA or other plasma proteins [2] | time of highest tumor uptake [3] | also measured
C[Se]CC[C@@H]1NC(=O)[C@@H]2CSCCC(=O)N3CN(CN(C3)C(=O)CCSC[C@H](NC(=O)CC[C@H](C(=O)O)N3CCN(CC(=O)O)CCN(CC(=O)O)CC3)C(=O)N3CCC[C@H]3C(=O)N[C@@H](Cc3cccc4ccccc34)C(=O)N[C@H](CC(=O)O)C(=O)N2)C(=O)CCSC[C@@H](C(N)=O)NC(=O)[C@H](Cc2c[nH]c3ccccc23)NC(=O)[C@@H]2C[C@@H](O)CN2C(=O)[C@@H]2CCCN2C(=O)[C@H]([C@@H](C)O)NC(=O)[C@H](CO)NC(=O)[C@H](Cc2c[nH]c3ccccc23)NC(=O)[C@H](CC(=O)O)NC(=O)[C@H](CCCCNC(=N)N)NC1=O [compound 5] (X1-CP[1Nal][dD]C[SeMet][hArg]DWSTP[Hyp]WC-NH2; linker 1-5-15 via TATA) | 19.5 | 1.69 | – | – | – | – | logD 7.4 ([1]; ^64Cu-labeled ligand, n-octanol/PBS pH 7.4, ±SD): –2.37 (±0.07)
